This is an account of results in publication doi:10.1101/2025.10.26.684696v1 (bioRxiv, 2025).

For data set [1] the following is noted: reference compound; cited from earlier work.
The nature of data set [2]: Stability in human plasma. In kind it is in vitro ADME.
Data set [3] can be described thus: Stability in rat liver microsomes. The class given is in vitro ADME.
A short description of data set [4]: LogD7.4 by miniaturized shake-flask procedure. In kind it is physicochemical. Conditions: miniaturized shake-flask procedure at pH 7.4.
Data set [5] in a line: Stability in simulated gastric fluid. The class given is in vitro ADME. The note with it: pH 1.6.
Data set [6] can be described thus: Stability in simulated intestinal fluid. Conditions: pH 6.5. In kind it is in vitro ADME.
The next data set in a line: Caco-2 cell permeability. The class given is in vitro ADME. A general note: Passage across Caco-2 layers is used to estimate intestinal permeability.
For data set [7] the following is noted: reference compound; cited from earlier work. This is another data set of the same source.

Residues, ends and D or L forms follow the SMILES beside them.

With `CC[C@H]1OC(=O)[C@H](C)[C@@H](O[C@H]2C[C@@](C)(OC)[C@@H](O)[C@H](C)O2)[C@H](C)[C@@H](O[C@@H]2O[C@H](C)C[C@H](N(C)C)[C@H]2O)[C@](C)(O)C[C@@H](C)C(=O)[C@H](C)[C@@H](O)[C@]1(C)O` [erythromycin], the “Stability in intestinal simulated fluids (t1/2)” value in data set [1] is given as 453 min.
As for `N=C(N)NCCC[C@@H]1NC(=O)CNC(=O)CNC(=O)[C@H](Cc2c[nH]cn2)NC(=O)CNC(=O)CNC(=O)[C@H](Cc2c[nH]c3ccccc23)NC(=O)[C@H](Cc2c[nH]c3ccccc23)NC(=O)CNC(=O)[C@H](CCCCN)NC(=O)CNC(=O)[C@H](CO)NC(=O)CNC(=O)CNC(=O)[C@H](Cc2c[nH]c3ccccc23)NC1=O` [SP4] (cyclo(GGHGGRWGGSGKGWW)), in data set [2], the amount remaining – broadly, the share of the starting amount still present when the sample was taken – at 1 h is 89.4%. In addition, the half-life (in general, the time in which the quantity being followed falls by half) in data set [3] is 282 min. Besides, in data set [4], the LogD7.4 is reported as 0.86. Besides, in data set [5], the half-life was 108 min. In data set [6], this molecule gave a half-life of 456 min. Also, in the data set “Caco-2 cell permeability”, the Papp A→B (commonly how fast a substance crosses the layer from the apical side) is 1.78 ×10⁻⁶ cm/s; the Papp B→A (commonly the apparent permeability from the basolateral to the apical side of a cell layer) came out at 2.15 ×10⁻⁶ cm/s; the efflux ratio (in general, a quotient of directional permeabilities that is used to spot active efflux) was approximately 1.2.
On to `CC(C)[N+](C)(CCOC(=O)C1c2ccccc2Oc2ccccc21)C(C)C` [propantheline], for which, in data set [7], the “Human plasma stability (t1/2)” value is 2.6 min.
